The results in this text go back to patent US20070275984A1, “Novel Thieno-Pyridine and Thieno-Pyrimidine Derivatives and Their Use as Positive Allosteric Modulators of Mglur2-Receptors” (JANSSEN PHARMACEUTICA N.V., priority 2004, published 2007).

By melting point is commonly meant the temperature of the solid-liquid transition.

`COc1cccc(CCNc2nc(C)nc3sc(C)cc23)c1` [Compound 25, N-(3-methoxyphenethyl)-2,6-dimethylthieno[2,3-d]pyrimidin-4-amine] had a melting point of 139 °C.

Turning to `CCc1nc(NCCc2cccc(OC)c2)c2cc(C)sc2n1` [Compound 26, N-(3-methoxyphenethyl)-2-ethyl-6-methylthieno[2,3-d]pyrimidin-4-amine], the melting point amounted to 83.5 °C.

Take `COc1ccc(CCNc2ncnc3sc(C)cc23)cc1` [Compound 27, N-(4-methoxyphenethyl)-6-methylthieno[2,3-d]pyrimidin-4-amine]: the melting point amounted to 199 °C.

`CCc1nc(NCCc2ccc(OC)cc2)c2cc(C)sc2n1` [Compound 29, N-(4-methoxyphenethyl)-2-ethyl-6-methylthieno[2,3-d]pyrimidin-4-amine]: the melting point stood at 82 °C.

With `CCOc1ccc(CCNc2nc(C)nc3sc(C)cc23)cc1` [Compound 30, N-(4-ethoxyphenethyl)-2,6-dimethylthieno[2,3-d]pyrimidin-4-amine], the melting point lay in the range of 101 to 103 °C.

`COc1cc(CCNc2nc(C)nc3sc(C)cc23)ccc1O` [Compound 31, 4-(2-(2,6-dimethylthieno[2,3-d]pyrimidin-4-ylamino)ethyl)-2-methoxyphenol] gave a melting point of 135 °C.

For the compound `COc1ccc(CCNc2nc(C)nc3sc(C)cc23)cc1OC` [Compound 33, N-(3,4-dimethoxyphenethyl)-2,6-dimethylthieno[2,3-d]pyrimidin-4-amine], the melting point came to 85 °C.

The compound `CCc1nc(NCCc2ccc(OC)c(OC)c2)c2cc(C)sc2n1` [Compound 34, N-(3,4-dimethoxyphenethyl)-2-ethyl-6-methylthieno[2,3-d]pyrimidin-4-amine] registered a melting point of 105 °C.

`COc1cc(CCNc2nc(C)nc3sc(C)cc23)cc(OC)c1` [Compound 35, N-(3,5-dimethoxyphenethyl)-2,6-dimethylthieno[2,3-d]pyrimidin-4-amine] registered a melting point of 106 to 107 °C.

In turn, `Cc1nc(NCCc2ccc(Cl)cc2)c2cc(C)sc2n1` [Compound 38, N-(4-chlorophenethyl)-2,6-dimethylthieno[2,3-d]pyrimidin-4-amine] displayed a melting point of 129 °C.

For `Cc1nc(NCCc2ccc(F)cc2)c2cc(C)sc2n1` [Compound 41, N-(4-fluorophenethyl)-2,6-dimethylthieno[2,3-d]pyrimidin-4-amine], the melting point worked out at 117.2 °C.

`Cc1nc(NCCc2ccc(S(C)(=O)=O)cc2)c2cc(C)sc2n1` [Compound 44, N-(4-(methylsulfonyl)phenethyl)-2,6-dimethylthieno[2,3-d]pyrimidin-4-amine] yielded a melting point of 176 to 179.5 °C.

In the case of `Cc1nc(NCCOc2ccccc2)c2cc(C)sc2n1` [Compound 47, 2,6-dimethyl-N-(2-phenoxyethyl)thieno[2,3-d]pyrimidin-4-amine], the melting point is 156.5 °C.

Compound `Cc1nc(NCCc2ccccn2)c2cc(C)sc2n1` [Compound 48, 2,6-dimethyl-N-(2-(pyridin-2-yl)ethyl)thieno[2,3-d]pyrimidin-4-amine] came in with a melting point of 139 °C.

The compound `Cc1nc(NCCc2cccs2)c2cc(C)sc2n1` [Compound 50, 2,6-dimethyl-N-(2-(thiophen-2-yl)ethyl)thieno[2,3-d]pyrimidin-4-amine] registered a melting point of 102.5 to 103.7 °C.

As for `COc1ccc(CCN(C)c2nc(C)nc3sc(C)cc23)cc1` [Compound 51, N-(4-methoxyphenethyl)-N,2,6-trimethylthieno[2,3-d]pyrimidin-4-amine], the melting point came to 81 °C.

Compound `Cc1nc(NCC(C)c2ccccc2)c2cc(C)sc2n1` (stereo not shown) [Compound 52, 2,6-dimethyl-N-(2-phenylpropyl)thieno[2,3-d]pyrimidin-4-amine] registered a melting point of 94 °C.

In turn, `Cc1nc(NCC(O)c2ccccc2)c2cc(C)sc2n1` (stereo not shown) [Compound 53, 2-(2,6-dimethylthieno[2,3-d]pyrimidin-4-ylamino)-1-phenylethanol] displayed a melting point of 117 °C.

As to `Cc1nc(NCCCCc2ccccc2)c2cc(C)sc2n1` [Compound 54, 2,6-dimethyl-N-(4-phenylbutyl)thieno[2,3-d]pyrimidin-4-amine], the melting point turned out to be 108 °C.

For the compound `COc1cccc(CCCNc2nc(C)nc3sc(C)cc23)c1` [Compound 55, N-(3-(3-methoxyphenyl)propyl)-2,6-dimethylthieno[2,3-d]pyrimidin-4-amine], the melting point was 122 °C.

On to `COc1ccc(CCCNc2nc(C)nc3sc(C)cc23)cc1` [Compound 56, N-(3-(4-methoxyphenyl)propyl)-2,6-dimethylthieno[2,3-d]pyrimidin-4-amine], for which the melting point came to 120 °C.

With `COCCCNc1nc(C)nc2sc(C)cc12` [Compound 57, N-(3-methoxypropyl)-2,6-dimethylthieno[2,3-d]pyrimidin-4-amine], the melting point was 90 °C.

Consider `COc1cccc(CNc2nc(C)nc3sc(Cc4ccccc4)cc23)c1` [Compound 60, N-(3-methoxybenzyl)-6-benzyl-2-methylthieno[2,3-d]pyrimidin-4-amine], for which the melting point came to 107 °C.

As to `CN(C)C(=O)c1cc2c(NCCc3ccccc3)ncnc2s1` [Compound 62, N,N-dimethyl-4-(phenethylamino)thieno[2,3-d]pyrimidine-6-carboxamide], the melting point is 157 °C.

Compound `CCc1cc2c(NCc3ccccc3)ncnc2s1` [Compound 64, N-benzyl-6-ethylthieno[2,3-d]pyrimidin-4-amine] registered a melting point of 133 °C.

In turn, `CCc1cc2c(NCc3cccc(OC)c3)ncnc2s1` [Compound 65, N-(3-methoxybenzyl)-6-ethylthieno[2,3-d]pyrimidin-4-amine] showed a melting point of 99 °C.

As to `CCc1cc2c(NCc3ccc(F)cc3)ncnc2s1` [Compound 66, N-(4-fluorobenzyl)-6-ethylthieno[2,3-d]pyrimidin-4-amine], the melting point stood at 104 °C.

In turn, `CCc1cc2c(NCCc3ccccc3)ncnc2s1` [Compound 68, 6-ethyl-N-phenethylthieno[2,3-d]pyrimidin-4-amine] gave a melting point of 118 °C.

`CCc1cc2c(NCCc3cccc(OC)c3)ncnc2s1` [Compound 69, N-(3-methoxyphenethyl)-6-ethylthieno[2,3-d]pyrimidin-4-amine] returned a melting point of 81 °C.

Compound `CCc1cc2c(NCCc3ccc(OC)cc3)ncnc2s1` [Compound 70, N-(4-methoxyphenethyl)-6-ethylthieno[2,3-d]pyrimidin-4-amine] came in with a melting point of 133 °C.

`CCc1cc2c(NCCc3ccc(OC)cc3)nc(C)nc2s1` [Compound 71, N-(4-methoxyphenethyl)-6-ethyl-2-methylthieno[2,3-d]pyrimidin-4-amine]: the melting point amounted to 102 °C.

The compound `CCc1cc2c(NCCc3ccc(OC)c(OC)c3)ncnc2s1` [Compound 72, N-(3,4-dimethoxyphenethyl)-6-ethylthieno[2,3-d]pyrimidin-4-amine] returned a melting point of 124 °C.

`CCc1cc2c(NCCc3ccc(OC)c(OC)c3)nc(C)nc2s1` [Compound 73, N-(3,4-dimethoxyphenethyl)-6-ethyl-2-methylthieno[2,3-d]pyrimidin-4-amine] yielded a melting point of 78 °C.

Regarding `CCCc1cc2c(NCc3cccc(OC)c3)ncnc2s1` [Compound 77, N-(3-methoxybenzyl)-6-propylthieno[2,3-d]pyrimidin-4-amine], the melting point came to 118 °C.

In the case of `CCCc1cc2c(NCCc3ccccc3)nc(NC)nc2s1` [Compound 81, N2-methyl-N4-phenethyl-6-propylthieno[2,3-d]pyrimidine-2,4-diamine], the melting point was 162 °C.

`CCCc1cc2c(NCCc3ccc(O)cc3)nc(OC)nc2s1` [Compound 83, 4-(2-(2-methoxy-6-propylthieno[2,3-d]pyrimidin-4-ylamino)ethyl)phenol] returned a melting point of 79 °C.

`CCCc1cc2c(NCCc3ccc(O)cc3)nc(Cl)nc2s1` [Compound 84, 4-(2-(2-chloro-6-propylthieno[2,3-d]pyrimidin-4-ylamino)ethyl)phenol] came in with a melting point of 135 °C.

`CCCc1cc2c(NCCc3ccc(OC)cc3)ncnc2s1` [Compound 85, N-(4-methoxyphenethyl)-6-propylthieno[2,3-d]pyrimidin-4-amine]: the melting point worked out at 102 °C.

In turn, `CCCc1cc2c(NCCc3ccc(OC)cc3)nc(OC)nc2s1` [Compound 86, N-(4-methoxyphenethyl)-2-methoxy-6-propylthieno[2,3-d]pyrimidin-4-amine] returned a melting point of 92 °C.

`CCCc1cc2c(NCCc3ccc(OC)c(OC)c3)ncnc2s1` [Compound 87, N-(3,4-dimethoxyphenethyl)-6-propylthieno[2,3-d]pyrimidin-4-amine] returned a melting point of 128.5 °C.

`CCCc1cc2c(NCCc3ccc(OCc4nnn[nH]4)cc3)nc(OC)nc2s1` [Compound 88, N-(4-((1H-tetrazol-5-yl)methoxy)phenethyl)-2-methoxy-6-propylthieno[2,3-d]pyrimidin-4-amine]: the melting point was found to be 181 °C.

As to `CCCc1cc2c(NCCNc3ccccc3)ncnc2s1` [Compound 89, N-(2-(phenylamino)ethyl)-6-propylthieno[2,3-d]pyrimidin-4-amine], the melting point was found to be 68 °C.

The compound `COc1cccc(CNc2ncnc3sc(C(C)C)cc23)c1` [Compound 91, N-(3-methoxybenzyl)-6-isopropylthieno[2,3-d]pyrimidin-4-amine] registered a melting point of 65 °C.

On to `CC(C)c1cc2c(NCCc3ccccc3)ncnc2s1` [Compound 92, 6-isopropyl-N-phenethylthieno[2,3-d]pyrimidin-4-amine], for which the melting point is 117.5 °C.

Turning to `COc1ccc(CCNc2ncnc3sc(C(C)C)cc23)cc1` [Compound 93, N-(4-methoxyphenethyl)-6-isopropylthieno[2,3-d]pyrimidin-4-amine], the melting point was 108.5 °C.

Take `CCCCc1cc2c(NCCc3ccccc3)ncnc2s1` [Compound 94, 6-butyl-N-phenethylthieno[2,3-d]pyrimidin-4-amine]: the melting point came out at 95 °C.
